Structures are written as SMILES.

From patent US20210179578A1, “OX1 ANTAGONISTS” (Heptares Therapeutics Limited, priority 2017, published 2021) come the findings set out here.

For the test, the target named is T1, human OX1 receptor (Homo sapiens, UniProt O43613).
T1 sequence (O43613 1-425): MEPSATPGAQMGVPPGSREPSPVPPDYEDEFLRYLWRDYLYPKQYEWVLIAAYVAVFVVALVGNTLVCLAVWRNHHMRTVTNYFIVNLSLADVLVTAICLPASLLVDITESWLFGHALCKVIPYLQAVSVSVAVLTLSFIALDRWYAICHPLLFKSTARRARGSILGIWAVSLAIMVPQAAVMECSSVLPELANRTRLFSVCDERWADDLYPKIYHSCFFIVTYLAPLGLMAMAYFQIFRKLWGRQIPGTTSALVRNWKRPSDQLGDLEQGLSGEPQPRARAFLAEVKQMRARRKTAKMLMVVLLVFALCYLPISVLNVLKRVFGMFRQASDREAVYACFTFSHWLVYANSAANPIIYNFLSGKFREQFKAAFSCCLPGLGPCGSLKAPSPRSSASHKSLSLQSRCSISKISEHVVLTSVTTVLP
Briefly: [3H]-radioligand binding assay, OX1. On the set-up: made in house; host or cells: SF21 insect cells (baculovirus; P0 virus made in SF9). The conditions noted are these: [3H]-radioligand binding, human OX1 membranes; read-out: pKi average OX1 (converted). From the text:
Cloning, Baculovirus generation, large-scale infection of SF21 cells and membrane preparation. Human OX1 or OX2 receptor were cloned into Invitrogen's (ThermoFisher Scientific, UK) Bac-to-Bac Baculovirus Expression System. P0 baculovirus was generated by transfecting SF9 cells with bacmid DNA using Cellfectin® II transfection reagent (ThermoFisher Scientific, UK, Catalog number 10362-100). Following P0 generation P1 virus was then generated ready for large scale infection and membrane preparation. SF21 cells were grown in expression medium ESF921 (Expression Systems, USA, catalog number 96-001-01) supplemented with 10% heat-inactivated FBS and 1% Pen/Strep and were infected at a cell density of 2.5×10^6 cells/mL and a multiplicity of infection of 1.0 for both human OX1R and OX2R. Incubation was carried out at over 48 h in a shaking incubator set at 27° C. The cell culture was then centrifuged at 2,500 rcf for 10 min at 4° C. The pellets were resuspended in cold PBS supplemented with Roche's Complete EDTA-free protease inhibitor cocktail tablets (Roche Applied Sciences, catalog number 05056489001), 1 mM PMSF and 1 mM EDTA. The resuspended cell paste was then centrifuged at 3,273 rcf for 12 min at 4° C. The supernatant was discarded and the pellet frozen at −80° C. The cell pellet from a 4 L culture was resuspended in buffer containing 50 mM HEPES pH 7.5, 150 mM NaCl, 8 Roche EDTA-Free protease inhibitor cocktail tablets and 1 mM PMSF. The suspension was left stirring at rt for 1 h and then homogenised for 90 s at 9,500 rpm using a VDI 25 (VWR, USA) homogeniser. The cells were then lysed using a Microfluidiser processor M-110L Pneumatic (Microfluidics, USA) at 60 PSI and membranes collected by ultracentrifugation at 204.7 k×g for 1 h. The supernatant was discarded and the pellet was resuspended and homogenised in 90 s at 9,500 rpm in 50 mL (25 mL for each 2 L culture) of buffer containing 50 mM Hepes pH 7.5, 150 mM NaCl, 3 Roche EDTA-free protease inhibitor cocktail tablets and 1 mM PMSF. The resulting membranes were then stored at −80° C.
[^3H]-radioligand binding assay. After thawing, membrane homogenates were resuspended in the binding buffer (8.5 mM HEPES, pH 7.4, 1.3 mM CaCl2, 1.2 mM MgSO4, 118 mM NaCl, 4.7 mM KCl, 4 mM NaHCO3, 1.2 mM KH2PO4, 11 mM glucose) to a final assay concentration of 6.4 μg (OX1) or 1.4 μg (OX2) protein per well. Saturation isotherms were determined by the addition of various concentrations (0-30 nM) of [^3H]-4-(2,6-difluoro-4-methoxybenzyl)-2-(5,6-dimethoxypyridin-3-yl)-2H-1,2,4-benzothiadiazin-3(4H)-one 1,1-dioxide (Christopher et al, MedChemComm., 2015, 6, 947-955) in a total reaction volume of 250 μL for 90 min at rt. At the end of the incubation, membranes were filtered onto a 96-well GF/B filter pre-incubated with 0.5% polyethylenimine, with a Tomtec cell harvester and washed 5 times with 0.5 mL distilled water. Non-specific binding (NSB) was measured in the presence of 3.33 μM [4-(5-chloro-1,3-benzoxazol-2-yl)-7-methyl-1,4-diazepan-1-yl][5-methyl-2-(2H-1,2,3-triazol-2-yl)phenyl]methanone (Wertz et al, Angew. Chem. Int. Ed., 2011, 50, 11511-11515). Radioactivity on the filter was counted (1 min) on a Microbeta radiometric plate counter (Perkin Elmer) after addition of 50 μL of scintillation fluid (LabLogic: Part #SG-BXX-14). […] IC50 values were derived from the inhibition curve and the equilibrium dissociation constant (Ki) values were calculated using the Cheng-Prusoff equation.
Regarding `COc1ncc(N2CCc3c(F)cccc3N(Cc3ccc(Br)cc3F)C2=O)cc1C(C)(F)F` [Example 10, 1-(4-bromo-2-fluorobenzyl)-3-[5-(1,1-difluoroethyl)-6-methoxypyridin-3-yl]-6-fluoro-1,3,4,5-tetrahydro-2H-1,3-benzodiazepin-2-one], the Ki was 1.26 nM. To `COc1ncc(N2CCc3c(F)cccc3N(Cc3c(F)cc(Br)cc3F)C2=O)cc1S(C)(=O)=O` [Example 14, 1-(4-bromo-2,6-difluorobenzyl)-6-fluoro-3-[6-methoxy-5-(methylsulfonyl)pyridin-3-yl]-1,3,4,5-tetrahydro-2H-1,3-benzodiazepin-2-one] belongs 3.16 nM. To `COc1cc(F)c(CN2C(=O)N(c3cnc(OC)c(S(C)(=O)=O)c3)CCc3c(F)cccc32)c(F)c1F` [Example 15, 6-fluoro-3-[6-methoxy-5-(methylsulfonyl)pyridin-3-yl]-1-(2,3,6-trifluoro-4-methoxybenzyl)-1,3,4,5-tetrahydro-2H-1,3-benzodiazepin-2-one] belongs 1.26 nM; to `COc1cc(F)c(CN2C(=O)N(c3cnc(OC)c(S(C)(=O)=O)c3)CCc3c(F)cccc32)c(F)c1` [Example 16, 1-(2,6-difluoro-4-methoxybenzyl)-6-fluoro-3-[6-methoxy-5-(methylsulfonyl)pyridin-3-yl]-1,3,4,5-tetrahydro-2H-1,3-benzodiazepin-2-one], 0.794 nM; to `COc1ncc(N2CCc3c(F)cccc3N(Cc3c(C)cc(Br)cc3F)C2=O)cc1S(C)(=O)=O` [Example 17, 1-(4-bromo-2-fluoro-6-methylbenzyl)-6-fluoro-3-[6-methoxy-5-(methylsulfonyl)pyridin-3-yl]-1,3,4,5-tetrahydro-2H-1,3-benzodiazepin-2-one], 0.794 nM. In the case of `COc1ncc(N2CCc3c(F)cccc3N(Cc3c(C)cc(F)cc3F)C2=O)cc1S(C)(=O)=O` [Example 18, 1-(2,4-difluoro-6-methylbenzyl)-6-fluoro-3-[6-methoxy-5-(methylsulfonyl)pyridin-3-yl]-1,3,4,5-tetrahydro-2H-1,3-benzodiazepin-2-one], the Ki was 1.26 nM. To `COc1nc(OC)c(C(C)(F)F)cc1N1CCc2c(F)cccc2N(Cc2c(F)cc(Br)cc2F)C1=O` [Example 23, 1-(4-bromo-2,6-difluorobenzyl)-3-[5-(1,1-difluoroethyl)-2,6-dimethoxypyridin-3-yl]-6-fluoro-1,3,4,5-tetrahydro-2H-1,3-benzodiazepin-2-one] belongs 1.26 nM; to `COCc1cc(F)c(CN2C(=O)N(c3cc(C(C)(F)F)c(OC)nc3OC)CCc3c(F)cccc32)c(F)c1` [Example 24, 3-[5-(1,1-difluoroethyl)-2,6-dimethoxypyridin-3-yl]-1-[2,6-difluoro-4-(methoxymethyl)benzyl]-6-fluoro-1,3,4,5-tetrahydro-2H-1,3-benzodiazepin-2-one], 1 nM; to `COc1cc(F)c(CN2C(=O)N(c3cc(S(C)(=O)=O)c(OC)nc3OC)CCc3c(F)cccc32)c(F)c1` [Example 25, 1-(2,6-difluoro-4-methoxybenzyl)-3-[2,6-dimethoxy-5-(methylsulfonyl)pyridin-3-yl]-6-fluoro-1,3,4,5-tetrahydro-2H-1,3-benzodiazepin-2-one], 1.58 nM.

In the case of `CSc1cc(N2CCc3c(F)cccc3N(Cc3c(F)cc(Br)cc3F)C2=O)ccc1C` [Example 26, 1-(4-bromo-2,6-difluorobenzyl)-6-fluoro-3-[4-methyl-3-(methylsulfanyl)phenyl]-1,3,4,5-tetrahydro-2H-1,3-benzodiazepin-2-one], the Ki is 1.26 nM. To `Cc1ccc(N2CCc3c(F)cccc3N(Cc3c(F)cc(Br)cc3F)C2=O)cc1S(C)(=O)=O` [Example 27, 1-(4-bromo-2,6-difluorobenzyl)-6-fluoro-3-[4-methyl-3-(methylsulfonyl)phenyl]-1,3,4,5-tetrahydro-2H-1,3-benzodiazepin-2-one] belongs 1.58 nM; to `CCCc1cc(F)c(CN2C(=O)N(c3ccc(C)c(S(C)(=O)=O)c3)CCc3c(F)cccc32)c(F)c1` [Example 28, 1-(2,6-difluoro-4-propylbenzyl)-6-fluoro-3-[4-methyl-3-(methylsulfonyl)phenyl]-1,3,4,5-tetrahydro-2H-1,3-benzodiazepin-2-one], 2 nM; to `Cc1cc(C)c(S(C)(=O)=O)cc1N1CCc2ccccc2N(Cc2c(F)cc(Br)cc2F)C1=O` [Example 29, 1-(4-bromo-2,6-difluorobenzyl)-3-[2,4-dimethyl-5-(methylsulfonyl)phenyl]-1,3,4,5-tetrahydro-2H-1,3-benzodiazepin-2-one], 1.26 nM. To `Cc1cc(C)c(S(C)(=O)=O)cc1N1CCc2ccccc2N(Cc2c(F)cc(OC(C)C)cc2F)C1=O` [Example 30, 1-[2,6-difluoro-4-(propan-2-yloxy)benzyl]-3-[2,4-dimethyl-5-(methylsulfonyl)phenyl]-1,3,4,5-tetrahydro-2H-1,3-benzodiazepin-2-one] belongs 1.26 nM. Regarding `Cc1cc(C)c(S(C)(=O)=O)cc1N1CCc2c(F)cccc2N(Cc2c(F)cc(Br)cc2F)C1=O` [Example 31, 1-(4-bromo-2,6-difluorobenzyl)-3-[2,4-dimethyl-5-(methylsulfonyl)phenyl]-6-fluoro-1,3,4,5-tetrahydro-2H-1,3-benzodiazepin-2-one], the Ki was 1.26 nM. Turning to `Cc1ncc(N2CCc3c(F)cccc3N(Cc3c(F)cc(Br)cc3F)C2=O)cc1C(C)(F)F` [Example 32, 1-(4-bromo-2,6-difluorobenzyl)-3-[5-(1,1-difluoroethyl)-6-methylpyridin-3-yl]-6-fluoro-1,3,4,5-tetrahydro-2H-1,3-benzodiazepin-2-one], the Ki is 0.631 nM. To `COCc1cc(F)c(CN2C(=O)N(c3cnc(C)c(C(C)(F)F)c3)CCc3c(F)cccc32)c(F)c1` [Example 33, 3-[5-(1,1-difluoroethyl)-6-methylpyridin-3-yl]-1-[2,6-difluoro-4-(methoxymethyl)benzyl]-6-fluoro-1,3,4,5-tetrahydro-2H-1,3-benzodiazepin-2-one] belongs 0.631 nM.

For `CCCc1cc(F)c(CN2C(=O)N(c3cnc(C)c(C(C)(F)F)c3)CCc3c(F)cccc32)c(F)c1` [Example 34, 3-[5-(1,1-difluoroethyl)-6-methylpyridin-3-yl]-1-(2,6-difluoro-4-propylbenzyl)-6-fluoro-1,3,4,5-tetrahydro-2H-1,3-benzodiazepin-2-one], the Ki was 1.58 nM.

In the case of `Cc1ncc(N2CCc3c(F)cccc3N(Cc3c(F)cc(Br)cc3F)C2=O)cc1OC(F)F` [Example 37, 1-(4-bromo-2,6-difluorobenzyl)-3-[5-(difluoromethoxy)-6-methylpyridin-3-yl]-6-fluoro-1,3,4,5-tetrahydro-2H-1,3-benzodiazepin-2-one], the Ki is 1.58 nM.
